# According to ChEMBL document CHEMBL4043200, “Synthesis and biological evaluation of 8-aryl-2-morpholino-7-O-substituted benzo[e][1,3]oxazin-4-ones against DNA-PK, PI3K, PDE3A enzymes and platelet aggregation” (Bioorg Med Chem, 2017):
# What was measured:
# [1] = molecular target: Phosphatidylinositol 4,5-bisphosphate 3-kinase catalytic subunit beta isoform (Homo sapiens) (UniProt P42338); experiment: Inhibition of wild type PI3K-beta (unknown origin) assessed as decrease in ATP consumption at 10 uM using phosphotidylinositol bisphosphate and ATP measured after 60 mins by Kinase-Glo reagent based luminescence assay
# [2] = molecular target: Phosphatidylinositol 4,5-bisphosphate 3-kinase catalytic subunit alpha isoform (Homo sapiens) (UniProt P42336); experiment: Inhibition of wild type PI3K-alpha (unknown origin) assessed as decrease in ATP consumption at 10 uM using phosphotidylinositol bisphosphate and ATP measured after 60 mins by Kinase-Glo reagent based luminescence assay
# [3] = molecular target: T1, Phosphatidylinositol 4,5-bisphosphate 3-kinase catalytic subunit delta isoform (Homo sapiens, UniProt O00329); experiment: Inhibition of wild type PI3K-delta (unknown origin) assessed as decrease in ATP consumption using phosphotidylinositol bisphosphate and ATP measured after 60 mins by Kinase-Glo reagent based luminescence assay
# T1 sequence (O00329 whole entry): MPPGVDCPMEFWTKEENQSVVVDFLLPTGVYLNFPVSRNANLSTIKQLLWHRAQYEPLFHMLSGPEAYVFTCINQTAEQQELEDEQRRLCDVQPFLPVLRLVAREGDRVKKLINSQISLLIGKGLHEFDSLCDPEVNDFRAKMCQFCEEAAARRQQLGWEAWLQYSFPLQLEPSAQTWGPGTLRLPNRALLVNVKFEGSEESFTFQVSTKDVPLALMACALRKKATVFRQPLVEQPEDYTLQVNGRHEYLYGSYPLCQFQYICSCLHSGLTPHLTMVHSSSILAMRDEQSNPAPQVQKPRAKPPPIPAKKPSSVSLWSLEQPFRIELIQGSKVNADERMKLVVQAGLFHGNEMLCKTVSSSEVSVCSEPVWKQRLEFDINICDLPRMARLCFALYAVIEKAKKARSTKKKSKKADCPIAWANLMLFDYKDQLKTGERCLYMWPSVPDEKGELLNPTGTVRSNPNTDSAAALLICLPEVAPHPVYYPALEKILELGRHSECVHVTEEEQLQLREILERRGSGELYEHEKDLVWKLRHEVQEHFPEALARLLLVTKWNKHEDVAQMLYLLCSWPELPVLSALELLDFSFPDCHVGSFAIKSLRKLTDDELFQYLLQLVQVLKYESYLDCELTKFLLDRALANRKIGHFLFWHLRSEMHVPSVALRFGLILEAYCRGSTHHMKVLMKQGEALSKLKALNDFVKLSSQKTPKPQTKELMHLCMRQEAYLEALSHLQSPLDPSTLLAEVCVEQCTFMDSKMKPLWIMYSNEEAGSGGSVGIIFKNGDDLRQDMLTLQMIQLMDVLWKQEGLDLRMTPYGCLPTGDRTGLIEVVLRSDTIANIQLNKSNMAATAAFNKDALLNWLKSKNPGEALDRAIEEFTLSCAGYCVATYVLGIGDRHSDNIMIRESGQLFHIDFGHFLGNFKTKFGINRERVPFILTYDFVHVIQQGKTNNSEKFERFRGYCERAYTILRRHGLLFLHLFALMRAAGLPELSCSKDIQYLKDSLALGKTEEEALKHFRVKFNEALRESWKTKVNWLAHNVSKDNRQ
# [4] = molecular target: T2, Phosphatidylinositol 4,5-bisphosphate 3-kinase catalytic subunit delta isoform (Homo sapiens) (UniProt O00329); experiment: Inhibition of wild type PI3K-delta (unknown origin) assessed as decrease in ATP consumption at 10 uM using phosphotidylinositol bisphosphate and ATP measured after 60 mins by Kinase-Glo reagent based luminescence assay
# T2 sequence (whole entry): T1 sequence (O00329 whole entry)
# [5] = molecular target: Phosphatidylinositol 4,5-bisphosphate 3-kinase catalytic subunit gamma isoform (Homo sapiens) (UniProt P48736); experiment: Inhibition of wild type PI3K-gamma (unknown origin) assessed as decrease in ATP consumption at 10 uM using phosphotidylinositol bisphosphate and ATP measured after 60 mins by Kinase-Glo reagent based luminescence assay
# [6] = molecular target: cGMP-inhibited 3',5'-cyclic phosphodiesterase 3A (Homo sapiens, UniProt Q14432); experiment: Inhibition of human PDE3A at 10 uM by HTRF assay
# [7] = molecular target: DNA-dependent protein kinase catalytic subunit (Homo sapiens, UniProt P78527); experiment: Inhibition of human DNA-PK catalytic subunit at 10 uM using DNA and [EPPLSQEAFADLWKK] peptide substrate by HTRF assay
# cGMP-inhibited 3',5'-cyclic phosphodiesterase 3A, sequence (Q14432 whole entry): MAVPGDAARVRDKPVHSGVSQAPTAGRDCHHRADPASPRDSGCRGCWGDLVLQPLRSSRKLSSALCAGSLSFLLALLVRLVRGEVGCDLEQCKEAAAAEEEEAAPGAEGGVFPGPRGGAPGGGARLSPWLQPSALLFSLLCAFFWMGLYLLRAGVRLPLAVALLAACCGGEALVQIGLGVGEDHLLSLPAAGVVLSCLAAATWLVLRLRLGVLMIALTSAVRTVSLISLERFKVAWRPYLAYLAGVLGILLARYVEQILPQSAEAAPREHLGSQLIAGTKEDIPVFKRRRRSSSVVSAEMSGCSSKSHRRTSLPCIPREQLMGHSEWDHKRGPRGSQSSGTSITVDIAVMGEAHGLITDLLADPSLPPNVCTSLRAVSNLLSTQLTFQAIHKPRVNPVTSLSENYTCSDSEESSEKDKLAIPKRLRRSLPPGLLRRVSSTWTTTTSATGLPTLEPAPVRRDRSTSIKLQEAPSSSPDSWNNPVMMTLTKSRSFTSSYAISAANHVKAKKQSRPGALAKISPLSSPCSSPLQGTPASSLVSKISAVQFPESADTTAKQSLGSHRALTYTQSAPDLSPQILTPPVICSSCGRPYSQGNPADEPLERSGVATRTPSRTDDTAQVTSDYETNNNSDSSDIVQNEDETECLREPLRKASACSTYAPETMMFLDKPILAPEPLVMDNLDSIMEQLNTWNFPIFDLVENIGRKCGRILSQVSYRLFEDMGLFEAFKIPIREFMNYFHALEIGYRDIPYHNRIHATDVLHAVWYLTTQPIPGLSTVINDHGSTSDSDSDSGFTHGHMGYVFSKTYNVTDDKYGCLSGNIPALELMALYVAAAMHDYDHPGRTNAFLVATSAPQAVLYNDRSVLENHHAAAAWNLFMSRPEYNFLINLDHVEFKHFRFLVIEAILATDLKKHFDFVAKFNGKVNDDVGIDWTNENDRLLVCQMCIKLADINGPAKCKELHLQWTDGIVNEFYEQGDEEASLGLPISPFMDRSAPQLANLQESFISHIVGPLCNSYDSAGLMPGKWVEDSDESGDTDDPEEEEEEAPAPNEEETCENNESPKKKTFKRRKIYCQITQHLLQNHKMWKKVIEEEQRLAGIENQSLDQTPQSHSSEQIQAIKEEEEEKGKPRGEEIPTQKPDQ
# Phosphatidylinositol 4,5-bisphosphate 3-kinase catalytic subunit gamma isoform (Homo sapiens), sequence (P48736 whole entry, looked up, canonical isoform): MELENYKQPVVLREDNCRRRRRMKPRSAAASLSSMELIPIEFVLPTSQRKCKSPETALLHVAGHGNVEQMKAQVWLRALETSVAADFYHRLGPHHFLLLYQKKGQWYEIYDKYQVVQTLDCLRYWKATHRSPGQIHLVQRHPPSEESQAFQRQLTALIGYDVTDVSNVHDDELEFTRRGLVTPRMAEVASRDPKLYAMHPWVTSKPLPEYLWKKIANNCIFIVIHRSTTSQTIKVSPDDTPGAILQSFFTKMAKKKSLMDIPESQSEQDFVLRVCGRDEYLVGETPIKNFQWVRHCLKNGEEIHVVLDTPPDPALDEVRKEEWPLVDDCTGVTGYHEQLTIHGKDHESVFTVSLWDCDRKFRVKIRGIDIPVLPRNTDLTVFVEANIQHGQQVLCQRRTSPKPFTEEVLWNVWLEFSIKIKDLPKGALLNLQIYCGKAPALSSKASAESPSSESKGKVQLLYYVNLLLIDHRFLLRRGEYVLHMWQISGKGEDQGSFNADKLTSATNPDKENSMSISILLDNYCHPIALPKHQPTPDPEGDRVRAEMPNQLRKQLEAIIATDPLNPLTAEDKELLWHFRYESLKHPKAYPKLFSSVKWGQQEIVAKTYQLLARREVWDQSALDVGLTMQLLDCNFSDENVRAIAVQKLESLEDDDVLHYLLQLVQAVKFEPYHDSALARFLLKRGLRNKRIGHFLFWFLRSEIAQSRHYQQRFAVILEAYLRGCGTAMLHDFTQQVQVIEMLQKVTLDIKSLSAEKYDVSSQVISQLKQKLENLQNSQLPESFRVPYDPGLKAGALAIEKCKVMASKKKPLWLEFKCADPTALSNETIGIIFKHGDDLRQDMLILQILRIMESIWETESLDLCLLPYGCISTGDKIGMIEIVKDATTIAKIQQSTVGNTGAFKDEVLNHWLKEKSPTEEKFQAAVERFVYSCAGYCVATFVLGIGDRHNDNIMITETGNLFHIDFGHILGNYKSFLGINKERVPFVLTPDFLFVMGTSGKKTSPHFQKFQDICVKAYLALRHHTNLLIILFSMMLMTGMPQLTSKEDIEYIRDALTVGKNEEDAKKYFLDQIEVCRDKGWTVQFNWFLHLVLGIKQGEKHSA
# Phosphatidylinositol 4,5-bisphosphate 3-kinase catalytic subunit alpha isoform (Homo sapiens), sequence (P42336 whole entry, canonical isoform): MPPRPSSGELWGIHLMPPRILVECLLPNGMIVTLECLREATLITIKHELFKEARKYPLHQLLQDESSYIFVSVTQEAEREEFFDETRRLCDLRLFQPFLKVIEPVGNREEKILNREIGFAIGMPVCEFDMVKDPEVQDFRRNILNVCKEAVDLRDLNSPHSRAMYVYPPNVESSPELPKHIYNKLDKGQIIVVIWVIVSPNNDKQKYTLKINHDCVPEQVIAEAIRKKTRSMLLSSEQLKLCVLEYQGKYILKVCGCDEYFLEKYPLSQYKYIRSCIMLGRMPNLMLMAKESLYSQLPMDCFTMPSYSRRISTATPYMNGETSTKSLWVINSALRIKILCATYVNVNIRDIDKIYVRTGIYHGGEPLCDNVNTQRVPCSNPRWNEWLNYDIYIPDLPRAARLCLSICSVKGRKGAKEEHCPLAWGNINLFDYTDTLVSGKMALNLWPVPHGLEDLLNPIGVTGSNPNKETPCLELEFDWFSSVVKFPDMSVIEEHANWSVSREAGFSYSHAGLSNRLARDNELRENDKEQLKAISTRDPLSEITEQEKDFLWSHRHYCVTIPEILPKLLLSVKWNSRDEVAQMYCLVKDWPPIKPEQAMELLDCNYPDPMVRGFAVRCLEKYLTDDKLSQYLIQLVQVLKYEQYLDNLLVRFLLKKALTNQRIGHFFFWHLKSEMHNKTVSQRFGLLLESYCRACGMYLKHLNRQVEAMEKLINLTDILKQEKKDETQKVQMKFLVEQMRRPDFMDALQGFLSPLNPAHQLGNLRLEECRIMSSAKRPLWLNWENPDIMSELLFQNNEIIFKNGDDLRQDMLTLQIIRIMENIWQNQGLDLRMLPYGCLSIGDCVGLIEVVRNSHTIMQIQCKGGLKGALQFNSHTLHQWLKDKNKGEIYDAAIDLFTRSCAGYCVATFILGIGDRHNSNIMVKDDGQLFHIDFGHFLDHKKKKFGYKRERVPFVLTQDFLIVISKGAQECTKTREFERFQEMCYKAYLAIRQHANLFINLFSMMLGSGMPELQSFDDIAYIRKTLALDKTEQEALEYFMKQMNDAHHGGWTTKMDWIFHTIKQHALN
# Phosphatidylinositol 4,5-bisphosphate 3-kinase catalytic subunit beta isoform (Homo sapiens), sequence (P42338 whole entry, looked up, canonical isoform): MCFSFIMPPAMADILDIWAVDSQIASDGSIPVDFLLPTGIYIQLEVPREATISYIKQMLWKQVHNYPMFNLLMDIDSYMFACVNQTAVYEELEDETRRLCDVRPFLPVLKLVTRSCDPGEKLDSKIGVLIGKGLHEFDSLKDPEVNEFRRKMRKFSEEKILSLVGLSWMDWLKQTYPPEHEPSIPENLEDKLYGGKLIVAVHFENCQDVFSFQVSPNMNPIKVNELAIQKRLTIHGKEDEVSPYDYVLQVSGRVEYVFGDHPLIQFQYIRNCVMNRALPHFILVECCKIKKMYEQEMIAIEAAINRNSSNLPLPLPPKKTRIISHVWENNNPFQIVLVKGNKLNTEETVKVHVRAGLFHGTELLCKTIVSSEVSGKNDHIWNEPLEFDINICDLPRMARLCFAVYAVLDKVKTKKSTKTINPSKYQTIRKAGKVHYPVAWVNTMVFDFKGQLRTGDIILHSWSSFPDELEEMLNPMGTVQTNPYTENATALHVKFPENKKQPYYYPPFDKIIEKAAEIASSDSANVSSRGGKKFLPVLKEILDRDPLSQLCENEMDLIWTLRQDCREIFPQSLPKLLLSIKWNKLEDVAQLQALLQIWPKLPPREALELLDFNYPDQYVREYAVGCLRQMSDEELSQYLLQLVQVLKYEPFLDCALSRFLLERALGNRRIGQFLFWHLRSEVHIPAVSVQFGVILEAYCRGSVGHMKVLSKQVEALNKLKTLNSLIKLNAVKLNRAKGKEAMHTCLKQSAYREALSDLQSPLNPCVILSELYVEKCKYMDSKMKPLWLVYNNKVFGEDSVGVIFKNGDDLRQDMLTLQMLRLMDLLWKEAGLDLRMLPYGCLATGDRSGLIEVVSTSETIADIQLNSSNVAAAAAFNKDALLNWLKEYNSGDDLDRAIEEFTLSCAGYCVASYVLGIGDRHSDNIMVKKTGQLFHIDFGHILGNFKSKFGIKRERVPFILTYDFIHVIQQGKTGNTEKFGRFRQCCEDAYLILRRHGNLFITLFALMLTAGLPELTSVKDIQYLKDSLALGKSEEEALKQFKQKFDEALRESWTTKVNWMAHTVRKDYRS
Compound,inhibition [1] [%],inhibition [2] [%],IC50 [3] [µM],inhibition [4] [%],inhibition [5] [%],inhibition [6] [%],inhibition [7] [%]
O=c1nc(N2CCOCC2)oc2c(-c3ccsc3)c(OCc3cccnc3)ccc12,0.3,-3.3,–,16.6,3.8,61.9,44
O=c1nc(N2CCOCC2)oc2c(-c3cc4ccccc4s3)c(OCc3ccccc3)ccc12,0.4,-7.3,–,1.1,-7.1,58.1,–
O=c1nc(N2CCOCC2)oc2c(-c3cccs3)c(OCc3ccccc3)ccc12,–,-9.9,–,9.2,-3.5,59.9,46.1
COc1ccc(-c2c(OCCN3CCN(C)CC3)ccc3c(=O)nc(N4CCOCC4)oc23)cc1,44.8,40.3,5.68,73.9,6.23,11.5,18.1
O=c1nc(N2CCOCC2)oc2c(-c3ccc(Cl)cc3)c(OCCBr)ccc12,7.6,-6.1,–,53.6,–,11.3,31
O=c1nc(N2CCOCC2)oc2c(-c3ccc(Cl)cc3)c(OCc3ccccn3)ccc12,48.8,28.6,14.7,62.1,23.5,63.3,27
O=c1nc(N2CCOCC2)oc2c(-c3ccccc3)c(OCc3ccncc3)ccc12,68.1,46.1,5.8,80.8,8.2,60.1,15.1
O=c1nc(N2CCOCC2)oc2c(-c3ccc(CO)cc3)c(OCc3ccccc3)ccc12,54.2,39.1,3.07,84.7,–,18.9,36
O=c1nc(N2CCOCC2)oc2c(-c3ccccc3)c(OCc3ccccc3)ccc12,29.8,21.3,–,58.7,5.4,24,13.6
O=c1nc(N2CCOCC2)oc2c(-c3cccc4c3sc3ccccc34)c(OCc3ccccc3)ccc12,15.1,–,–,6.3,–,31.2,64.4
Nc1cccc(-c2c(OCc3ccccc3)ccc3c(=O)nc(N4CCOCC4)oc23)c1,63.1,31.6,–,63.4,19.8,5.1,9.1
COc1ccc(-c2c(OCc3cccnc3)ccc3c(=O)nc(N4CCOCC4)oc23)cc1,39.3,30,2.8,87.8,-2.2,29.8,33.5
O=c1nc(N2CCOCC2)oc2c(-c3ccsc3)c(OCc3ccccc3)ccc12,20.6,4.8,–,39.5,–,38.8,46.6
O=c1nc(N2CCOCC2)oc2c(-c3cccs3)c(OCc3ccncc3)ccc12,5.4,-2.9,–,24,-1.5,55.3,39.2
O=c1nc(N2CCOCC2)oc2c(-c3cc4ccccc4s3)c(OCc3ccncc3)ccc12,–,–,–,27.2,0.2,51.6,8.7

# Other lines, results leading:
inhibition [1] [%],inhibition [2] [%],IC50 [3] [µM],inhibition [4] [%],inhibition [5] [%],inhibition [6] [%],inhibition [7] [%],Compound
53.2,34.6,10.1,64.9,20,43.6,32.7,O=c1nc(N2CCOCC2)oc2c(-c3ccc(Cl)cc3)c(OCc3cccnc3)ccc12
20.3,12.7,–,49.4,1.4,21.8,11.6,CN1CCN(CCOc2ccc3c(=O)nc(N4CCOCC4)oc3c2-c2ccc(Cl)cc2)CC1
-5.5,–,–,9.7,-5.5,43.6,10.1,Nc1cccc(-c2c(OCc3ccncc3)ccc3c(=O)nc(N4CCOCC4)oc23)c1
4.67,–,–,9.5,–,51.3,4.07,O=c1nc(N2CCOCC2)oc2c(-c3cccc4ccccc34)c(OCc3ccccc3)ccc12
5.3,3.3,–,20.7,1.7,61.8,38.1,O=c1nc(N2CCOCC2)oc2c(-c3cccs3)c(OCc3cccnc3)ccc12
33.8,40.7,–,75.9,-6.4,24,31.1,O=c1nc(N2CCOCC2)oc2c(-c3ccccc3)c(OCCBr)ccc12
21,-1.7,–,34.5,-2.3,46.9,17.2,O=c1nc(N2CCOCC2)oc2c(-c3cccnc3)c(OCc3ccccc3)ccc12
–,–,–,-2.9,-4.1,62.9,41.5,O=c1nc(N2CCOCC2)oc2c(-c3cccc4c3oc3ccccc34)c(OCc3ccccc3)ccc12
39.7,56.3,2.7,88.8,-8.6,28,44.4,COc1ccc(-c2c(OCCBr)ccc3c(=O)nc(N4CCOCC4)oc23)cc1
53.6,21.4,–,72.2,7.7,55.3,32.8,O=c1nc(N2CCOCC2)oc2c(-c3ccsc3)c(OCc3ccncc3)ccc12
42.9,28.9,2.7,85.4,12.6,50.4,33.8,COc1ccc(-c2c(OCc3ccccn3)ccc3c(=O)nc(N4CCOCC4)oc23)cc1
28.2,18.4,–,41.9,-6.9,–,9.8,Nc1cccc(-c2c(OCc3cccnc3)ccc3c(=O)nc(N4CCOCC4)oc23)c1
0.6,–,–,-1,–,27.3,-1.7,O=c1nc(N2CCOCC2)oc2c(-c3cccc4c3Sc3ccccc3S4)c(OCc3ccccc3)ccc12
11,0.2,–,27.4,9.8,31.4,25.7,O=c1nc(N2CCOCC2)oc2c(-c3ccc(Cl)cc3)c(OCc3ccccc3)ccc12
53.8,36.2,2.9,96.3,–,33.5,33.6,COc1ccc(-c2c(OCc3ccncc3)ccc3c(=O)nc(N4CCOCC4)oc23)cc1
65.5,16.2,–,47.6,6.4,20,7.3,Nc1cccc(-c2c(OCc3ccccn3)ccc3c(=O)nc(N4CCOCC4)oc23)c1
19.8,0.6,–,65.7,-0.5,2.8,40,COc1ccc(-c2c(OCc3ccccc3)ccc3c(=O)nc(N4CCOCC4)oc23)cc1
